Laboratory results reported in the supplement of paper PMC8967900.

system: 697; experiment: selective drug sensitivity score (sDSS, relative to normal bone marrow) (sDSS (score)); higher = more potent and effective on the cell line relative to normal bone marrow cells; details: 72 h
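Further: ALL cell lines in 384-well plates, five doses spanning 10,000-fold, each plate scaled between vehicle and 100 µmol/L benzalkonium chloride controls, sDSS an adapted area-under-curve metric.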

Row | Compound | selective drug sensitivity score
1 | CCCCCOC(=O)Nc1nc(=O)n([C@@H]2O[C@H](C)[C@@H](O)[C@H]2O)cc1F [Capecitabine] (top concentration 10000 nM) | -0.06
2 | Nc1nc(Cl)nc2c1ncn2[C@H]1C[C@H](O)[C@@H](CO)O1 [Cladribine] (top concentration 1000 nM) | 10.5
3 | CCN(CC)CCOc1ccc(/C(=C(/Cl)c2ccccc2)c2ccccc2)cc1 [Clomifene] (top concentration 10000 nM) | 0.92
4 | CO[C@@H](C(=O)N1Cc2[nH]nc(NC(=O)c3ccc(N4CCN(C)CC4)cc3)c2C1)c1ccccc1 [Danusertib] (top concentration 10000 nM) | 21.4
5 | CC[C@@](C)(Nc1ccnc(-c2c[nH]c3ncccc23)n1)C(=O)NCC(F)(F)F [Decernotinib] (top concentration 10000 nM) | -1.54
6 | CN1CCN(c2ccc3nc(-c4c(N)c5c(F)cccc5[nH]c4=O)[nH]c3c2)CC1 [Dovitinib] (top concentration 10000 nM) | 1.56
7 | CC(C)(O)CNc1nc(Nc2ccnc(C(F)(F)F)c2)nc(-c2cccc(C(F)(F)F)n2)n1 [Enasidenib] (top concentration 10000 nM) | -0.2
8 | CN1CCN(c2ccc(C(=O)Nc3n[nH]c4ccc(Cc5cc(F)cc(F)c5)cc34)c(NC3CCOCC3)c2)CC1 [Entrectinib] (top concentration 1000 nM) | -1.2
9 | CNC(=O)c1ccc(N2C(=S)N(c3ccc(C#N)c(C(F)(F)F)c3)C(=O)C2(C)C)cc1F [Enzalutamide] (top concentration 10000 nM) | 1.48
10 | Cn1cc(C2=C(c3cn(C4CCN(Cc5ccccn5)CC4)c4ccccc34)C(=O)NC2=O)c2ccccc21 [Enzastaurin] (top concentration 10000 nM) | 5.76
11 | NS(=O)(=O)NCCNc1nonc1/C(=N/O)Nc1ccc(F)c(Br)c1 [Epacadostat] (top concentration 10000 nM) | -0.26
12 | CCOc1ccccc1-n1c(C(C)N2CCN(C(=O)COc3ccc(Cl)cc3)CC2)nc2ccccc2c1=O (stereo not given) [Erastin] (top concentration 10000 nM) | 20.1
13 | COc1cc(OC)cc(N(CCNC(C)C)c2ccc3ncc(-c4cnn(C)c4)nc3c2)c1 [Erdafitinib] (top concentration 1000 nM) | -0.06
14 | CC(C)(C)NC(=O)[C@H]1CC[C@H]2[C@@H]3CC[C@H]4NC(=O)C=C[C@]4(C)[C@H]3CC[C@]12C [Finasteride] (top concentration 10000 nM) | -0.52
15 | O=c1[nH]c(=O)n([C@H]2C[C@H](O)[C@@H](CO)O2)cc1F [Floxuridine] (top concentration 10000 nM) | 35.8
16 | CNc1nc(Nc2cn(C(C)(C)C#N)nc2C)ncc1C(F)(F)F [GNE-0877] (top concentration 1000 nM) | 0
17 | CCCc1cc(C)[nH]c(=O)c1CNC(=O)c1cc(-c2ccnc(N3CCN(C)CC3)c2)cc2c1cnn2C(C)C [GSK343] (top concentration 1000 nM) | 0
18 | O=C(O)c1ccc(O)c2ncccc12 [IOX-1] (top concentration 100000 nM) | 5.64

system: P12-ICHIKAWA; experiment: as above; details: 72 h

Row | Compound | selective drug sensitivity score
19 | CCCCCOC(=O)Nc1nc(=O)n([C@@H]2O[C@H](C)[C@@H](O)[C@H]2O)cc1F [Capecitabine] (top concentration 10000 nM) | -0.06
20 | Nc1nc(Cl)nc2c1ncn2[C@H]1C[C@H](O)[C@@H](CO)O1 [Cladribine] (top concentration 1000 nM) | -5.24
21 | CCN(CC)CCOc1ccc(/C(=C(/Cl)c2ccccc2)c2ccccc2)cc1 [Clomifene] (top concentration 10000 nM) | 0.32
22 | CO[C@@H](C(=O)N1Cc2[nH]nc(NC(=O)c3ccc(N4CCN(C)CC4)cc3)c2C1)c1ccccc1 [Danusertib] (top concentration 10000 nM) | 21.7
23 | CC[C@@](C)(Nc1ccnc(-c2c[nH]c3ncccc23)n1)C(=O)NCC(F)(F)F [Decernotinib] (top concentration 10000 nM) | -3.94
24 | CN1CCN(c2ccc3nc(-c4c(N)c5c(F)cccc5[nH]c4=O)[nH]c3c2)CC1 [Dovitinib] (top concentration 10000 nM) | -0.14
25 | CC(C)(O)CNc1nc(Nc2ccnc(C(F)(F)F)c2)nc(-c2cccc(C(F)(F)F)n2)n1 [Enasidenib] (top concentration 10000 nM) | 0.2
26 | CN1CCN(c2ccc(C(=O)Nc3n[nH]c4ccc(Cc5cc(F)cc(F)c5)cc34)c(NC3CCOCC3)c2)CC1 [Entrectinib] (top concentration 1000 nM) | -1.2
27 | CNC(=O)c1ccc(N2C(=S)N(c3ccc(C#N)c(C(F)(F)F)c3)C(=O)C2(C)C)cc1F [Enzalutamide] (top concentration 10000 nM) | -0.42
28 | Cn1cc(C2=C(c3cn(C4CCN(Cc5ccccn5)CC4)c4ccccc34)C(=O)NC2=O)c2ccccc21 [Enzastaurin] (top concentration 10000 nM) | 4.66
29 | NS(=O)(=O)NCCNc1nonc1/C(=N/O)Nc1ccc(F)c(Br)c1 [Epacadostat] (top concentration 10000 nM) | -0.26
30 | CCOc1ccccc1-n1c(C(C)N2CCN(C(=O)COc3ccc(Cl)cc3)CC2)nc2ccccc2c1=O (stereo not given) [Erastin] (top concentration 10000 nM) | 7.94
31 | COc1cc(OC)cc(N(CCNC(C)C)c2ccc3ncc(-c4cnn(C)c4)nc3c2)c1 [Erdafitinib] (top concentration 1000 nM) | -0.56
32 | CC(C)(C)NC(=O)[C@H]1CC[C@H]2[C@@H]3CC[C@H]4NC(=O)C=C[C@]4(C)[C@H]3CC[C@]12C [Finasteride] (top concentration 10000 nM) | -0.52
33 | O=c1[nH]c(=O)n([C@H]2C[C@H](O)[C@@H](CO)O2)cc1F [Floxuridine] (top concentration 10000 nM) | 30.4
34 | CNc1nc(Nc2cn(C(C)(C)C#N)nc2C)ncc1C(F)(F)F [GNE-0877] (top concentration 1000 nM) | 0
35 | CCCc1cc(C)[nH]c(=O)c1CNC(=O)c1cc(-c2ccnc(N3CCN(C)CC3)c2)cc2c1cnn2C(C)C [GSK343] (top concentration 1000 nM) | 0
36 | O=C(O)c1ccc(O)c2ncccc12 [IOX-1] (top concentration 100000 nM) | 4.34

system: NALM-16; experiment: as above; details: 72 h

Row | Compound | selective drug sensitivity score
37 | CCCCCOC(=O)Nc1nc(=O)n([C@@H]2O[C@H](C)[C@@H](O)[C@H]2O)cc1F [Capecitabine] (top concentration 10000 nM) | -0.06
38 | Nc1nc(Cl)nc2c1ncn2[C@H]1C[C@H](O)[C@@H](CO)O1 [Cladribine] (top concentration 1000 nM) | -8.24
39 | CCN(CC)CCOc1ccc(/C(=C(/Cl)c2ccccc2)c2ccccc2)cc1 [Clomifene] (top concentration 10000 nM) | -2.88
40 | CO[C@@H](C(=O)N1Cc2[nH]nc(NC(=O)c3ccc(N4CCN(C)CC4)cc3)c2C1)c1ccccc1 [Danusertib] (top concentration 10000 nM) | -0.96
41 | CC[C@@](C)(Nc1ccnc(-c2c[nH]c3ncccc23)n1)C(=O)NCC(F)(F)F [Decernotinib] (top concentration 10000 nM) | -3.94
42 | CN1CCN(c2ccc3nc(-c4c(N)c5c(F)cccc5[nH]c4=O)[nH]c3c2)CC1 [Dovitinib] (top concentration 10000 nM) | 0.96
43 | CC(C)(O)CNc1nc(Nc2ccnc(C(F)(F)F)c2)nc(-c2cccc(C(F)(F)F)n2)n1 [Enasidenib] (top concentration 10000 nM) | -0.8
44 | CN1CCN(c2ccc(C(=O)Nc3n[nH]c4ccc(Cc5cc(F)cc(F)c5)cc34)c(NC3CCOCC3)c2)CC1 [Entrectinib] (top concentration 1000 nM) | 0.5
45 | CNC(=O)c1ccc(N2C(=S)N(c3ccc(C#N)c(C(F)(F)F)c3)C(=O)C2(C)C)cc1F [Enzalutamide] (top concentration 10000 nM) | -0.82
